Among the data in patent US10548313B2, “Acetyl-CoA carboxylase modulators” (Monsanto Technology LLC, priority 2013, dated 2020) are inhibition and IC50 values, retold here.

Several values for one entry are separate records, joined by “and”; a condition that tells them apart may be missing. Equal values may be shown once. Read-outs that look alike come from different tables or passages of the source.

The subject of one assay is Diplodia maydis. The experiment in a line: Fungal growth inhibition assay, Diplodia maydis. To be noted: 48 hours, read-out: D. maydis % growth inhibition at 48 hours. It is filed as cell-based. Here is the method:
(§1) Spores were isolated from previously sub-cultured plates of Botrytis cinerea, Phytophthora capsici, Fusarium moniliforme, Fusarium viguliforme, Collectotrichum graminicola, and Diplodia maydis. All spores were filtered and collected in a sterile glass bowl to isolate the spores from the mycelia. The isolation and sub-culture plate condition for each pathogen is described below.
Spore isolation for D. maydis: A 3-4 week old PDA (pre-mix) plate was removed from 26° C. incubator with a light/dark 12 hour cycle and the mycelia were treated with 6-7 ml of sterile distilled water, scraped into a sterile petri dish, and smashed to open the pycnidia. The spores were then collected in a sterile filter bowl containing a fluted piece of filter paper and poured into a conical tube.
(§2) After spore isolation, pathogen spores were counted on a hemocytometer to calculate the spores/ml. In 17% V8 liquid media containing 3 g/L CaCO3, isolated spores were diluted to individual concentrations based on the growth curves at 48 hours of each pathogen. The spore concentrations for each pathogen were as follows: B. cinerea—10,000 sp/ml; P. capsici—300 sp/ml; F. monliforme—500 sp/ml; F. virguliforme—500 sp/ml; C. graminicola—3,000 sp/ml; and D. maydis—3,000 sp/ml.
(§3) Chemistry stocks were dissolved in DMSO at 2.5 mg/ml. Chemistry was diluted in a 96-well stock plate in five-fold dilutions to obtain a final concentration of 50, 10, and 2 ppm in vitro. The final concentration of the positive control after the five-fold dilutions was as follows: soraphen—0.5, 0.1, and 0.02 ppm. Negative controls on each plate included 2% DMSO, water containing spores and media, and a blank for background subtraction.
(§4) In a 96-well plate the spore solution, chemistries, and controls were combined to make the final solution concentrations mentioned above. Upon addition of the chemistry, an OD600 reading was done to assess chemical precipitation. The 96-well plates were incubated in plastic tubs containing wet paper towels under the following conditions, 25° C. in the dark for P. capsici and B. cinerea or 26° C. with light/dark cycle for C. graminicola, D. maydis, F. virguliforme, F. monliforme. Plate readings were repeated at 24 and 48 hrs. Visual ratings were performed at 24 and 48 hrs to check for precipitation and confirm efficacy. Visual and OD600 ratings of the chemistry at 48 hours were compared to the 2% DMSO control to determine the percent of pathogen growth inhibition.

In assay [1] the test system is Collectotrichum graminicola. The experiment in a line: Fungal growth inhibition assay, Collectotrichum graminicola. The format is cell-based. To be noted: Colletotrichum graminicola, 48 hours, read-out: C. graminicola % growth inhibition at 48 hours. The method, then:
as §1
Spore isolation for C. graminicola: A 1-2 week old oatmeal agar (pre-mix) plate was removed from 26° C. incubator with a light/dark 12 hour cycle and the mycelia were treated with 10-15 ml of filter sterilized distilled water. The mycelia were scraped to re-suspend the spores. The spores were then collected in a sterile filter bowl containing a piece of sterile cheesecloth and poured into a conical tube.
as §2, §3, §4

A further assay concerns Fusarium virguliforme. Kind of assay: Fungal growth inhibition assay, Fusarium virguliforme. It is filed as cell-based. To be noted: 48 hours, read-out: F. virguliforme % growth inhibition at 48 hours. Here is the method: as §1
Spore isolation for F. virguliforme: A 2-3 week old PDA (pre-mix) plate containing cefotaxime (100 mg/L) and kanamycin (50 mg/L) was removed from 26° C. incubator with a light/dark 12 hour cycle and the mycelia were treated with 5-10 ml of filter sterilized distilled water. The mycelia were scraped to re-suspend the spores. The spores were then collected in a sterile filter bowl containing a fluted piece of filter paper and poured into a conical tube.
as §2, §3, §4

A further assay relates to Botrytis cinerea. Kind of assay: Fungal growth inhibition assay, Botrytis cinerea. The format is cell-based. To be noted: 48 hours, read-out: B. cinerea % growth inhibition at 48 hours.
Description: as §1
Spore isolation for B. cinerea: A 2-3 week old V8 (17%)+CaCO3 (3 g/L)+20 g agar plate was removed from room temperature and the mycelia were treated with 5-10 ml of filter sterilized Triton X 100 (.05%). The mycelia were scraped to re-suspend the spores. The spores were then collected in a sterile filter bowl containing a fluted piece of filter paper and poured into a conical tube.
as §2, §3, §4

Assay [2] deals with Ustilago maydis acetyl CoA carboxylase (ACCase) (Mycosarcoma maydis (Ustilago maydis), UniProt A0A0D1DYD5). Kind of assay: ACCase enzymatic assay (coupled PK/LDH, NADH OD340). It is filed as biochemical. Here is the method: Ustilago maydis acetyl CoA carboxylase (ACCase) was cloned, expressed, and purified as described (Weatherly et al, Biochem. J., 2004) and the test compounds were tested in a 96-well plate format. Primary in vitro screening consisted of obtaining dose response data at 100, 33, 10, and 1 μM inhibitor. Actives in the primary screen were re-tested to establish IC50 values.
Chain of Ustilago maydis acetyl CoA carboxylase (ACCase) (A0A0D1DYD5 1-2185): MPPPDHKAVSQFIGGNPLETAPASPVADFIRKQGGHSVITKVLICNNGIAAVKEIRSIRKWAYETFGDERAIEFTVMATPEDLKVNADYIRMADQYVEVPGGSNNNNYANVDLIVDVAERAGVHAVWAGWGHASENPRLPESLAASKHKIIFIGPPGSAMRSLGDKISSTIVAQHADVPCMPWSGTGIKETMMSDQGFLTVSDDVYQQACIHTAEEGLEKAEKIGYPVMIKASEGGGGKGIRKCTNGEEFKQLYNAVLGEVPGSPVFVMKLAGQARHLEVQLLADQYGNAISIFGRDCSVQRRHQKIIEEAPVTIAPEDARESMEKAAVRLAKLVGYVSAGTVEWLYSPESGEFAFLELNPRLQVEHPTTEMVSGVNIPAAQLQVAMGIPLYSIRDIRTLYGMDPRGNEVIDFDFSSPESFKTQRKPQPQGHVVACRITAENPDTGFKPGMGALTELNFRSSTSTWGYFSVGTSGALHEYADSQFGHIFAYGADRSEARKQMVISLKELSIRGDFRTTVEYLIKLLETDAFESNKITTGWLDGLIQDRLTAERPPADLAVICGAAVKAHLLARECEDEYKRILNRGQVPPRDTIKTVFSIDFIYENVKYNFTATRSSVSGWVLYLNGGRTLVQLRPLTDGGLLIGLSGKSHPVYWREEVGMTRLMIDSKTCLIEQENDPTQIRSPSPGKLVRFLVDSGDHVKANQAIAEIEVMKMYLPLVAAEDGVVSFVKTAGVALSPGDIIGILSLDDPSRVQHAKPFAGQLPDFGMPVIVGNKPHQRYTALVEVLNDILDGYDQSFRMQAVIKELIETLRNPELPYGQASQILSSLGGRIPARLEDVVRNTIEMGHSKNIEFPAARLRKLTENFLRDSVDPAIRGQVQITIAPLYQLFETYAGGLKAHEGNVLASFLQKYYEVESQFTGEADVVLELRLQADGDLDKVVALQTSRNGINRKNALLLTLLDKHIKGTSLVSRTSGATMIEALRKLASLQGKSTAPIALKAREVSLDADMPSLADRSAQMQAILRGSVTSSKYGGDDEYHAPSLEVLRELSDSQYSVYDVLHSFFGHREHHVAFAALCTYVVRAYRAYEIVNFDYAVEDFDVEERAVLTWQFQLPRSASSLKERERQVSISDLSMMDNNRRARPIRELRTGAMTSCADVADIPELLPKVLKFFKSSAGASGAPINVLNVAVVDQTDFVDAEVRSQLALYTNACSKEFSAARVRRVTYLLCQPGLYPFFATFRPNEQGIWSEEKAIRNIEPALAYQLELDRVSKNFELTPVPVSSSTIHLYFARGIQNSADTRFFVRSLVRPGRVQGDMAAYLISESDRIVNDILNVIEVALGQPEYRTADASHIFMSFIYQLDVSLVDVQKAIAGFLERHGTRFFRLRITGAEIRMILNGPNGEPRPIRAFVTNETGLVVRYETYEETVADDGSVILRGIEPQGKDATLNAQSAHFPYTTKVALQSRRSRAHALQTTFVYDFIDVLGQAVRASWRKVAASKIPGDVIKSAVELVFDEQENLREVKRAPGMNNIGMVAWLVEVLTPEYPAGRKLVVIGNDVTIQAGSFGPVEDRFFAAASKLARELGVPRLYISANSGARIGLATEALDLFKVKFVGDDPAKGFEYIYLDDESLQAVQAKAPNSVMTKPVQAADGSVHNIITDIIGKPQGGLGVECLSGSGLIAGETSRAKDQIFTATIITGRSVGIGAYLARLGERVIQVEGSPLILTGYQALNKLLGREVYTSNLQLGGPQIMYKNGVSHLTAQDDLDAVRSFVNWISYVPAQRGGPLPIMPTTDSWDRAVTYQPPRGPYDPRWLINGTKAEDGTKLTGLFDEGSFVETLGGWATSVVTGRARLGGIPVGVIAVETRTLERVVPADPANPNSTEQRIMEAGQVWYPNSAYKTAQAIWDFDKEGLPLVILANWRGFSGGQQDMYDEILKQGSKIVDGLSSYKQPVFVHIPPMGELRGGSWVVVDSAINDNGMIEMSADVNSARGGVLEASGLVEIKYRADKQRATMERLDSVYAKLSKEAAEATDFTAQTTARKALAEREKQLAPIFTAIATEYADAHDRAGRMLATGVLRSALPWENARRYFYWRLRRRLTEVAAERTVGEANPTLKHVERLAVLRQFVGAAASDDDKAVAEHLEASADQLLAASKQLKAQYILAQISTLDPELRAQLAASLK
Direct detection of the conversion of acetyl CoA to malonyl CoA by ACCase was not feasible, but during this process ATP is converted to ADP which allowed for detection through a standard reaction coupling with ADP recycling to the oxidation of NADH. Thus, ACCase activity was measured via kinetic OD340 measurements of the conversion of NADH to NAD in a coupled reaction involving the conversion of phosphoenolpyruvate (PEP) to lactate.
The complete 200 ul reaction mixture contained 52.5 mM HEPES (pH8), 2.625 mM MgCl2, 1 mM ATP, 0.525 mM DTT, 11 mM NaHCO3, 1% DMSO with or without inhibitor, 1× pyruvate kinase/lactate dehydrogenase (PK/LDH), 0.3 mM NADH, 0.5 mM PEP, and 5 μg ACCase. The reactions were incubated at 30° C. for 10 minutes and then initiated by the addition of 0.33 mM acetyl CoA. The initiated reactions were read immediately via plate reader at OD340 and kinetic readings were acquired every 20 s for 15 minutes while keeping the temperature at 30° C.
A slope of the kinetic curve was determined by using the 2 to 7 minute data which was then calculated as percent inhibition relative to the no inhibitor control.
The primary screens were conducted in duplicate and the IC50's conducted in triplicate. Averages were reported along with standard deviation calculation to generate error bars.
Each plate contained its own controls and consisted of a DMSO only control, 5-fold titration series of soraphen from 2 μM to 3.2 nM, and an ADP coupled reaction control.

The test system of a further assay is Saccharomyces cerevisiae. The experiment in a line: Yeast growth inhibition assay. It is filed as cell-based. The method, then:
Yeast cells (Ade2 strain) were grown in liquid YPD (1% yeast extract, 2% peptone, 2% dextrose) for 16 hours at 30° C. from previously sub-cultured plates of Saccharomyces cerevisiae. The OD600 of the overnight culture was checked via spectrophotometer and diluted to a concentration of 2×10^4 cells/ml.
Chemistry stocks were dissolved in DMSO to a concentration of 10 mM. Chemistry stocks were further diluted in a 96-well stock plate to obtain final concentrations of 100, 33, 10 and 1 μM in 1% DMSO. The final concentrations of the soraphen positive controls were 400, 40, and 3.2 nM. The negative controls on each plate included a background subtraction control containing yeast and 1% DMSO (without chemistry) and a second contamination control containing YPD (with no yeast) and 1% DMSO (without chemistry).
98 μl liquid YPD was added to 2 μl diluted stock of DMSO per well and mixed thoroughly. After mixing, 100 μl of the diluted yeast solution was added to bring the final yeast concentration to 1×10^4 cells/ml or 2000 cells per well. An initial spectrophotometric reading at OD600 was conducted on the entire plate and served as the 0 hour time point used to subtract any background. […] […] […] All experiments were conducted in triplicate. Averages were reported along with standard deviation calculation to generate error bars. Each plate contained its own controls and consisted of inoculated+DMSO, non-inoculated+DMSO, and a titration series of soraphen at 400, 40, and 3.2 nM.

The next assay has as its system Phytophthora capsici. The experiment in a line: Fungal growth inhibition assay, Phytophthora capsici. To be noted: 48 hours, read-out: P. capsici % growth inhibition at 48 hours. It is filed as cell-based.
Description: as §1
Spore isolation for P. capsici: Three to five days prior to the assay a 2-3 week old V8 (17%)+CaCO3 (3 g/L)+20 g agar plate was removed from a dark 25° C. incubator and cut up into small chunks. One plate was separated into two deep well plates and rinsed with sterile distilled water three times. The cut up pieces were incubated under light in a sterile filter hood with 25 ml of sterile distilled water. On the day of the assay the water was removed and 5-7 ml of fresh sterile distilled water was added. One plate was incubated at 4° C. for 45-60 minutes and then placed at room temperature for about 45-60 minutes. The spores were collected in a sterile filter bowl containing a fluted piece of filter paper. The spores were vortexed in a conical tube for 30-60 seconds to remove the flagella of the zoospores after isolation.
as §2, §3, §4

[3] abbreviates: Table 1A, values marked a are a result of two or more experiments, read-out: ACCase Inhibitory Activity IC50.

The inhibition is the relative decrease from the control value, in per cent. As to `N#Cc1c(-c2cccs2)cc(-c2cccs2)nc1SC(C(=O)O)c1ccccc1` (racemic) [Formula Ia-iii, 2-((3-cyano-4,6-di(thiophen-2-yl)pyridin-2-yl)thio)-2-phenylacetic acid], the inhibition at 2 ppm was determined as 0% with Diplodia maydis, 27% in assay [1] and 2% in the assay on Fusarium virguliforme. The inhibition at 10 ppm was 87% in the assay on Diplodia maydis, 98% in assay [1] and 84% in the assay with Fusarium virguliforme. In addition, the inhibition at 50 ppm came to 82% with Diplodia maydis, 91% in assay [1] and 90% with Fusarium virguliforme (50 ppm).

In general, IC50 refers to the midpoint of a concentration-inhibition curve. Consider `COc1ccc(-c2cc(-c3cccs3)nc(SC(C(=O)O)c3ccccc3)c2C#N)cc1` (racemic) [Formula Ia-xiv, 2-((3-cyano-4-(4-methoxyphenyl)-6-(thiophen-2-yl)pyridin-2-yl)thio)-2-phenylacetic acid], for which, in the assay with Botrytis cinerea, the inhibition at 2 ppm turned out to be 14% and the inhibition at 10 ppm is 8%. For the same molecule, in assay [1], the inhibition at 2 ppm was 6%, the inhibition at 10 ppm came out at 32% and the inhibition at 50 ppm was 79%. For the same molecule, the IC50 in assay [2] (Table 1B, racemate vs single enantiomers, read-out: ACCase Inhibitory Activity of Racemic Mixtures and Single Enantiomers IC50) is 0.092 µM and 0.14 µM.

Consider `N#Cc1c(C(F)(F)F)cc(-c2ccc(Br)cc2)nc1SC(C(=O)O)c1ccccc1` (stereo not drawn) [Formula Ia-x, 2-((6-(4-bromophenyl)-3-cyano-4-(trifluoromethyl)pyridin-2-yl)thio)-2-phenylacetic acid], for which, in the assay on Botrytis cinerea, the inhibition at 2 ppm amounted to 0%, the inhibition at 10 ppm stood at 12% and the inhibition at 50 ppm was 25%. Moreover, in assay [2] (setting [3]), the IC50 worked out at 1.95 µM. Also, in the assay on Saccharomyces cerevisiae (read-out: S. cerevisiae % growth inhibition at 48 hours, 3.7 μM), the inhibition at 3.7 µM was determined as 12%. Also, the inhibition at 11.1 µM in the assay with Saccharomyces cerevisiae (read-out: S. cerevisiae % growth inhibition at 48 hours, 11.1 μM) is 13%. Moreover, in the assay with Saccharomyces cerevisiae (read-out: S. cerevisiae % growth inhibition at 48 hours, 33.3 μM), the inhibition at 33.3 µM stood at 46%. The inhibition at 100 µM with Saccharomyces cerevisiae (read-out: S. cerevisiae % growth inhibition at 48 hours, 100 μM) was determined as 99%.

For the molecule `COc1ccc(-c2cc(-c3ccc[s+]3[O-])nc(OC(C(=O)O)c3ccccc3)c2C#N)cc1` (stereo not drawn) [Formula Ia-xxviii, 2-((3-cyano-4-(4-methoxyphenyl)-6-(1-oxidothiophen-2-yl)pyridin-2-yl)oxy)-2-phenylacetic acid], in the assay on Botrytis cinerea, the inhibition at 2 ppm came to 14% and the inhibition at 10 ppm stood at 27%. Further, the IC50 in assay [2] (setting [3]) came to 0.196 µM.

Turning to `N#Cc1c(-c2ccccc2)cc(-c2ccccc2)nc1SC(C(=O)O)c1ccccc1` (stereo not drawn) [Formula Ia-xii, 2-((3-cyano-4,6-diphenylpyridin-2-yl)thio)-2-phenylacetic acid], the inhibition at 2 ppm in the assay with Diplodia maydis stood at 42%; in the assay on Botrytis cinerea, 0%; with Phytophthora capsici (2 ppm) it was 16%; in assay [1] it was 6%. The inhibition at 10 ppm in the assay on Diplodia maydis amounted to 59%; with Botrytis cinerea, 6%; in the assay on Phytophthora capsici (10 ppm), 36%; in assay [1], 35%. Further, the inhibition at 50 ppm worked out at 86% in the assay with Diplodia maydis, 19% in the assay on Botrytis cinerea, 22% with Phytophthora capsici (50 ppm) and 80% in assay [1]. In assay [2] (setting [3]), the 50% inhibitory concentration (IC50) was 0.266 µM.

For `CCc1nc(SC(C(=O)O)c2ccccc2)c(C#N)c2c1CCCC2` (stereo not drawn) [Formula Ia-xv, 2-((4-cyano-1-ethyl-5,6,7,8-tetrahydroisoquinolin-3-yl)thio)-2-phenylacetic acid], the IC50 in assay [2] (setting [3]) worked out at 10.2 µM. In addition, in the assay on Fusarium virguliforme, the inhibition at 2 ppm is 10% and the inhibition at 10 ppm was determined as 48%.
